Measured values from patent US6953786B2, “Compositions comprising plant-derived polyphenolic compounds and inhibitors of reactive oxygen species and methods of using thereof” (The Regents of the University of California, priority 2002, dated 2005).

Tested on: Mia PACA-2
Test: TUNEL apoptosis assay in primary tumors and normal tissues
Format: in vivo, nude mouse
Method: In order to determine the mechanism of the suppressive effects of quercetin on the growth of the pancreatic cancer, apoptosis in the primary tumors using the TUNEL assay was conducted. See Gukovskaya AS, et al. (1997) Clin Invest 100:1853-1862; Gukovskaya AS, et al. (1996) Gastroenterology 110:875-884; and Sandoval D, et al. (1996) Gastroenterology 111:1081-1091, which are herein incorporated by reference. Specifically, 3 μm tissue section were deparaffinized and rehydrated through a graded series of ethanol and redistilled water. Tissue sections were refixed in 4% paraformaldehyde for 15 minutes at room temperature and then incubated with proteinase K (20 μg/ml in 10 mM Tirs/HCL, pH 7.4-8.0) for 15 minutes at 37° C. DNA breaks were then labeled with terminal deoxytransferase (TdT) and biotinylated deoxyUTP. Staining without TdT enzyme or the biotinylated substrate were used as negative controls. For positive controls, slides were treated with DNase I. Measurements were made by light microscpy observations and values calculated as the percentage of cells positively stained as a percentage of the total number of cells.

## O=c1c(O)c(-c2ccc(O)c(O)c2)oc2cc(O)cc(O)c12 [quercetin]
TUNEL in primary tumors of quercetin-treated nude mice, means ± SE, n=8
  Percentage of apoptosis: 7.10 ± 1.00 %
quercetin-treated nude mice, data not shown
  apoptosis in normal tissues detected by the TUNEL assay: no increase in apoptosis
